This experiment has as its target T1, Interleukin-1 receptor-associated kinase 4 (Homo sapiens, UniProt Q9NWZ3).
T1 sequence (Q9NWZ3 whole entry): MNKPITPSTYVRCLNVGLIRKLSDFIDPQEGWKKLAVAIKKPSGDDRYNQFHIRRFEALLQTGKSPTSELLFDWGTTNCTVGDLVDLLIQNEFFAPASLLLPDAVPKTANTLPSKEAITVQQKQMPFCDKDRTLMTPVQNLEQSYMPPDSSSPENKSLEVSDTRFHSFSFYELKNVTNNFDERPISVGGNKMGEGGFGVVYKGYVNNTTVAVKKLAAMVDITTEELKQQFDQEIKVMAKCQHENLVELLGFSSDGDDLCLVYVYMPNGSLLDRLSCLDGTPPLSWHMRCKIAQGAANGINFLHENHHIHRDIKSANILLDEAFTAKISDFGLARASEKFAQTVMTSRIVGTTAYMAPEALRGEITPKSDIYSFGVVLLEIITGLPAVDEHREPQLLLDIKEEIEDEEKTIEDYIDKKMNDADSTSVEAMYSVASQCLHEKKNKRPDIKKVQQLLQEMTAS
Description: Kinase Assay: The kinase activity of IRAK-4 is determined by its ability to catalyze the phosphorylation of a fluorescent polypeptide substrate. The extent of phosphorylation is measured using the IMAP technology (Molecular Devices) where the phosphorylated fluorescent substrate binds to the large M(III)-based nanoparticles which reduces the rotational speed of the substrate and thus increases its fluorescent polarization (FP). 20 μl reaction mixture contains 10 mM TriHCl, pH 7.2, 0.5 nM GST tagged IRAK-4 (SignalChem), 100 nM fluorescent peptide substrate (RP7030, Molecular Devices), 100 μM ATP, 1 mM DTT, 1 mM MgCl2, and 0.01% Tween 20. The reaction is initiated by the addition of ATP. After incubation for 30 minutes at 25° C., 60 μl of Progressive IMAP Reagent (Molecular Devices) is added to stop the reaction. Change in RP7030's FP is determined by a FP reader (Analyst HT, LH, BioSystems).
For the compound `Cc1ccc(-n2nc(C3CCN(C(C)C(C)C)CC3)cc2NC(=O)c2cnn3cccnc23)cc1` (configuration not stated), the IC50 (usually the concentration that inhibits the measured activity by half) is < 1000 nM.
As for `Cc1ccc(-n2nc(C3CCN(S(C)(=O)=O)CC3)cc2NC(=O)c2cnn3cc(C)cnc23)cc1`, the figure is < 1000 nM; as for `CS(=O)(=O)N1CCC(c2cc(NC(=O)c3cnn4cccnc34)n(-c3ccc(CO)cn3)n2)CC1`, < 100 nM; as for `Cc1ccc(-n2nc(C3CCN(S(C)(=O)=O)CC3)cc2NC(=O)c2cnn3cc(Br)cnc23)cc1`, < 1000 nM.
As to `Cc1ccc(-n2nc(C3CCCN(Cc4ncco4)C3)cc2NC(=O)c2cnn3cccnc23)cc1` (configuration not stated), the IC50 is < 1000 nM.
Regarding `CC(=O)N1CCC(N2CCC(c3cc(NC(=O)c4cnn5cccnc45)n(-c4ccc(C)cc4)n3)CC2)CC1`, the IC50 is < 100 nM.
Regarding `Cc1ccc(-n2nc(C3CCCN(Cc4cccc5c4CNC5=O)C3)cc2NC(=O)c2cnn3cccnc23)cc1` (configuration not stated), the concentration for half-maximal inhibition (IC50) is < 100 nM.
For `CS(=O)(=O)N1CCC(c2cc(NC(=O)c3cnn4cccnc34)n(CCN)n2)CC1`, the IC50 was < 1000 nM.
For `Cc1ccc(-n2nc(-c3cncc(N4CCN(C)CC4)c3)cc2NC(=O)c2cnn3cccnc23)cc1`, the IC50 was < 1000 nM.
As to `COc1ncc(CN2CCCC(c3cc(NC(=O)c4cnn5cccnc45)n(-c4ccc(C)cc4)n3)C2)cn1` (configuration not stated), the IC50 is < 1000 nM.
`Cc1ccc(-n2nc(C3CCN(C(C)C(=O)N4CCCCC4)CC3)cc2NC(=O)c2cnn3cccnc23)cc1` (configuration not stated): the IC50 is < 1000 nM.
With `COc1ccc(-n2nc(C3CCN(S(C)(=O)=O)CC3)cc2NC(=O)c2cnn3cccnc23)nc1`, the IC50 was < 1000 nM.
With `Cc1ccc(-n2nc(C3CCN(C4CNC4)CC3)cc2NC(=O)c2cnn3cccnc23)cc1`, the IC50 was < 1000 nM.
Take `Cc1ccc(-n2nc(C3CCN(S(=O)(=O)C4CC4)CC3)cc2NC(=O)c2cnn3cccnc23)nc1`: the IC50 is < 100 nM.
For the compound `Cc1ccc(-n2nc(C3CCCN(Cc4ccc(S(C)(=O)=O)cc4)C3)cc2NC(=O)c2cnn3cccnc23)cc1` (configuration not stated), the IC50 is < 100 nM.
As to `Cc1ccc(-n2nc(C3CCN(S(C)(=O)=O)C3)cc2NC(=O)c2cnn3cccnc23)cc1` (configuration not stated), the 50% inhibitory concentration (IC50) is < 1000 nM.
Take `COc1ccc(-n2nc(C3CCNCC3)cc2NC(=O)c2cnn3cc(C4CC4)cnc23)cc1`: the IC50 is < 1000 nM.
For `CCn1nccc1CN1CCCC(c2cc(NC(=O)c3cnn4cccnc34)n(-c3ccc(C)cc3)n2)C1` (configuration not stated), the 50% inhibitory concentration (IC50) is < 1000 nM.
On to `CNC(C)c1ccc(-n2nc(C3CCN(S(C)(=O)=O)CC3)cc2NC(=O)c2cnn3cccnc23)nc1` (configuration not stated), for which the IC50 was < 1000 nM.
Take `Cc1ccc(-n2nc(C3CCCN(Cc4cccnc4F)C3)cc2NC(=O)c2cnn3cccnc23)cc1` (configuration not stated): the IC50 is < 1000 nM.
For the compound `Cc1ccc(-n2nc(C3CCCN(Cc4cnc(N(C)C)s4)C3)cc2NC(=O)c2cnn3cccnc23)cc1` (configuration not stated), the half-maximal inhibitory concentration (IC50) was < 1000 nM.
`Cc1ccc(-n2nc(C3CCCN(Cc4ccn[nH]4)C3)cc2NC(=O)c2cnn3cccnc23)cc1` (configuration not stated): the half-maximal inhibitory concentration (IC50) was < 100 nM.
For `Cc1ccc(-n2nc(-c3ccnc(CN4CCCCC4)c3)cc2NC(=O)c2cnn3cccnc23)cc1`, the IC50 was < 100 nM.
As for `Cc1ccc(-n2nc(C3CCCN(Cc4ccccn4)C3)cc2NC(=O)c2cnn3cccnc23)cc1` (configuration not stated), the figure is < 1000 nM.
The value for `Cc1ccc(-n2nc(C3CCN(S(C)(=O)=O)CC3)cc2NC(=O)c2cnn3cc(Br)cnc23)nc1` was < 100 nM.
For the compound `COc1ccc(CN2CCCC(c3cc(NC(=O)c4cnn5cccnc45)n(-c4ccc(C)cc4)n3)C2)cn1` (configuration not stated), the 50% inhibitory concentration (IC50) was < 1000 nM.
Turning to `Cc1ccc(-n2nc(C3CCCN(CC4CCOC4)C3)cc2NC(=O)c2cnn3cccnc23)cc1` (configuration not stated), the IC50 was < 1000 nM.
For `Cc1ccc(-n2nc(C3CCN(C(C)C(=O)N4CCCC4)CC3)cc2NC(=O)c2cnn3cccnc23)cc1` (configuration not stated), the IC50 was < 100 nM.
As for `C#Cc1cnc2c(C(=O)Nc3cc(C4CCN(S(C)(=O)=O)CC4)nn3-c3ccc(C)cn3)cnn2c1`, the figure is < 100 nM; as for `Cc1ccc(-n2nc(C3CCCN(Cc4ccncc4)C3)cc2NC(=O)c2cnn3cccnc23)cc1` (configuration not stated), < 1000 nM; as for `Cc1ccc(-n2nc(C3CCN(C)CC3)cc2NC(=O)c2cnn3cccnc23)c(F)c1`, < 1000 nM.
Turning to `Cc1ccc(-n2nc(C3CCCN(Cc4cccnc4)C3)cc2NC(=O)c2cnn3cccnc23)cc1` (configuration not stated), the 50% inhibitory concentration (IC50) was < 1000 nM.
Turning to `Cc1ccc(-n2nc(C3CCCN(Cc4ccc(F)cn4)C3)cc2NC(=O)c2cnn3cccnc23)cc1` (configuration not stated), the IC50 is < 1000 nM.
As for `Cc1ccc(-n2nc(C3CCN(CC(C)C)CC3)cc2NC(=O)c2cnn3cccnc23)nc1`, the figure is < 100 nM; as for `Cc1cnc(-n2nc(C3CCNCC3)cc2NC(=O)c2cnn3cccnc23)nc1`, > 1000 nM; as for `CS(=O)(=O)N1CCC(c2cc(NC(=O)c3cnn4cccnc34)n(-c3ccc(CN)cn3)n2)CC1`, < 100 nM.
Consider `Cc1ccc(-n2nc(C3CCN(C4CCN(C5CC5)CC4)CC3)cc2NC(=O)c2cnn3cccnc23)cc1`, for which the IC50 is < 1000 nM.
With `Cc1ccc(-n2nc(-c3ccc(S(=O)(=O)N4CCOCC4)cc3)cc2NC(=O)c2cnn3cccnc23)cc1`, the IC50 was < 100 nM.
For `Cc1ccc(-n2nc(C3CCN(C(C)c4cccc(F)n4)CC3)cc2NC(=O)c2cnn3cccnc23)cc1` (configuration not stated), the IC50 was < 1000 nM.
With `CCOC(=O)N1CCC(N2CCC(c3cc(NC(=O)c4cnn5cccnc45)n(-c4ccc(C)cc4)n3)CC2)CC1`, the IC50 is < 100 nM.
Take `COc1ccc(CN2CCC(c3cc(NC(=O)c4cnn5cccnc45)n(-c4ccc(C)cc4)n3)CC2)cn1`: the IC50 is < 1000 nM.
Regarding `Cc1ccc(-n2nc(C3CCCN(Cc4cn[nH]c4)C3)cc2NC(=O)c2cnn3cccnc23)cc1` (configuration not stated), the IC50 was < 1000 nM.
Take `Cc1ccc(-n2nc(C3CCCN(Cc4ccc5c(c4)C(=O)NC5)C3)cc2NC(=O)c2cnn3cccnc23)cc1` (configuration not stated): the IC50 is < 1000 nM.
`Cc1cnc(-n2nc(C3CCN(S(C)(=O)=O)CC3)cc2NC(=O)c2cnn3cccnc23)cn1`: the IC50 is > 1000 nM.
Turning to `O=C(Nc1cc(C2CCN(C3CCC3)CC2)nn1-c1ccc(C2CC2)cn1)c1cnn2cccnc12`, the concentration for half-maximal inhibition (IC50) was < 100 nM.
For the compound `Cc1ccc(-n2nc(C3CCN(C4CCC(C(F)(F)F)CC4)CC3)cc2NC(=O)c2cnn3cccnc23)cc1` (configuration not stated), the half-inhibitory concentration (IC50) is < 100 nM.
As to `CS(=O)(=O)N1CCC(c2cc(NC(=O)c3cnn4cccnc34)n(-c3ccccc3)n2)CC1`, the IC50 was < 1000 nM.
